Test results taken from patent US20260262643A1, “HERBICIDAL BENZOXAZINES” (FMC CORPORATION, priority 2022, published 2026).

Experiments:
[1] = tested on: ryegrass, Italian; test: Test A postemergence; type: in vivo, Lolium multiflorum
Outline: (§1)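 Seeds in loam–sand blend received a directed preemergence soil spray of compound in non-phytotoxic solvent with surfactant; postemergence plants (2–10 cm, one- to two-leaf stage) were sprayed with the same formulation. After 10 days in greenhouse, injury was rated visually versus untreated controls, 0 (no effect) to 100 (complete control).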

[2] = tested on: blackgrass; test: Test A postemergence; type: in vivo, Alopecurus myosuroides
Outline: as §1

[3] = tested on: kochia; test: Test A preemergence; type: in vivo, Bassia scoparia
Outline: as §1

[4] = tested on: rice; test: Test B flooded paddy test; type: in vivo, Oryza sativa; details: 250 g ai/ha, Flood, 13 days, 0 to 100 scale (0 no effect, 100 complete control)
Outline: (§2)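 Plants at the 2-leaf stage were flooded to 3 cm above the soil, and test compounds were applied directly into the paddy water, with that depth held throughout. After 13 days in a greenhouse, injury was rated visually against untreated controls on a 0–100 scale (100 = complete control).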

[5] = tested on: goosegrass; test: Test A postemergence; type: in vivo, Eleusine indica
Outline: as §1

[6] = tested on: sedge, umbrella; test: Test B flooded paddy test; type: in vivo, Cyperus difformis; details: 250 g ai/ha, Flood, 13 days, 0 to 100 scale (0 no effect, 100 complete control)
Outline: as §2

[7] = tested on: foxtail, giant; test: Test A postemergence; type: in vivo, Setaria faberi
Outline: as §1

[8] = tested on: oat, wild; test: Test A postemergence; type: in vivo, Avena fatua
Outline: as §1

[9] = tested on: wheat; test: Test A postemergence; type: in vivo, Triticum aestivum
Outline: as §1

[10] = tested on: pigweed, palmer; test: Test A postemergence; type: in vivo, Amaranthus palmeri
Outline: as §1

[11] = tested on: blackgrass; test: Test A preemergence; type: in vivo, Alopecurus myosuroides
Outline: as §1

[12] = tested on: oat, wild; test: Test A preemergence; type: in vivo, Avena fatua
Outline: as §1

[13] = tested on: kochia; test: Test A postemergence; type: in vivo, Bassia scoparia
Outline: as §1

[14] = tested on: barnyardgrass; test: Test B flooded paddy test; type: in vivo, Echinochloa crus-galli; details: 250 g ai/ha, Flood, 13 days, 0 to 100 scale (0 no effect, 100 complete control)
Outline: as §2

[15] = tested on: ducksalad; test: Test B flooded paddy test; type: in vivo, Heteranthera limosa; details: 250 g ai/ha, Flood, 13 days, 0 to 100 scale (0 no effect, 100 complete control)
Outline: as §2

[16] = tested on: ragweed; test: Test A preemergence; type: in vivo, Ambrosia artemisiifolia
Outline: as §1

[17] = tested on: pigweed, palmer; test: Test A preemergence; type: in vivo, Amaranthus palmeri
Outline: as §1

[18] = tested on: soybean; test: Test A preemergence; type: in vivo, Glycine max
Outline: as §1

[19] = tested on: soybean; test: Test A postemergence; type: in vivo, Glycine max
Outline: as §1

[20] = tested on: wheat; test: Test A preemergence; type: in vivo, Triticum aestivum
Outline: as §1

[21] = tested on: ryegrass, Italian; test: Test A preemergence; type: in vivo, Lolium multiflorum
Outline: as §1

[22] = tested on: corn; test: Test A postemergence; type: in vivo, Zea mays
Outline: as §1

[23] = tested on: galium; test: Test A postemergence; type: in vivo, Galium aparine
Outline: as §1

[24] = tested on: corn; test: Test A preemergence; type: in vivo, Zea mays
Outline: as §1

[25] = tested on: goosegrass; test: Test A preemergence; type: in vivo, Eleusine indica
Outline: as §1

[26] = tested on: foxtail, giant; test: Test A preemergence; type: in vivo, Setaria faberi
Outline: as §1

[27] = tested on: ragweed; test: Test A postemergence; type: in vivo, Ambrosia artemisiifolia
Outline: as §1

[28] = 125 g ai/ha, postemergence, 10 days, visual injury, 0 to 100 scale (0 no effect, 100 complete control)
[29] = 500 g ai/ha, Postemergence, 0 to 100 scale
[30] = 125 g ai/ha, visual injury after 10 days, 0 to 100 scale, 0 is no effect, 100 is complete control
[31] = 500 g ai/ha, 0 to 100 scale (0 no effect, 100 complete control), 10 days

Cc1cc(F)cc2c1OC(C)CN2C(=O)c1cccc(-n2cncn2)c1 (stereo not shown) [Compound 44]
Plant response rating, Ryegrass, Italian [1, 28]: 50
Plant response rating, Ryegrass, Italian [1, 29]: 80
Plant response rating, Blackgrass [2, 28]: 30
Plant response rating, Blackgrass [2, 29]: 60
Plant response rating, Kochia [3, 30]: 0
Plant response rating, Kochia [3, 31]: 20
Plant response rating, Rice [4]: 0
Plant response rating, Goosegrass [5, 28]: 30
Plant response rating, Goosegrass [5, 29]: 70
Plant response rating, Sedge, Umbrella [6]: 0
Plant response rating, Foxtail, Giant [7, 28]: 40
Plant response rating, Foxtail, Giant [7, 29]: 90
Plant response rating, Oat, Wild [8, 28]: 0
Plant response rating, Oat, Wild [8, 29]: 80
Plant response rating, Wheat [9, 28]: 30
Plant response rating, Wheat [9, 29]: 80
Plant response rating, Pigweed, Palmer [10, 28]: 30
Plant response rating, Pigweed, Palmer [10, 29]: 10
Plant response rating, Blackgrass [11, 30]: 10
Plant response rating, Blackgrass [11, 31]: 80
Plant response rating, Oat, Wild [12, 30]: 10
Plant response rating, Oat, Wild [12, 31]: 50
Plant response rating, Kochia [13, 28]: 10
Plant response rating, Kochia [13, 29]: 20
Plant response rating, Barnyardgrass [14]: 0
Plant response rating, Ducksalad [15]: 0
Plant response rating, Ragweed [16, 30]: 0
Plant response rating, Ragweed [16, 31]: 0
Plant response rating, Pigweed, Palmer [17, 30]: 10
Plant response rating, Pigweed, Palmer [17, 31]: 20
Plant response rating, Soybean [18, 30]: 40
Plant response rating, Soybean [18, 31]: 70
Plant response rating, Soybean [19, 28]: 100
Plant response rating, Soybean [19, 29]: 100
Plant response rating, Wheat [20, 30]: 0
Plant response rating, Wheat [20, 31]: 40
Plant response rating, Ryegrass, Italian [21, 30]: 80
Plant response rating, Ryegrass, Italian [21, 31]: 100
Plant response rating, Corn [22, 28]: 30
Plant response rating, Corn [22, 29]: 70
Plant response rating, Galium [23, 28]: 50
Plant response rating, Galium [23, 29]: 70
Plant response rating, Corn [24, 30]: 10
Plant response rating, Corn [24, 31]: 30
Plant response rating, Goosegrass [25, 30]: 90
Plant response rating, Goosegrass [25, 31]: 100
Plant response rating, Foxtail, Giant [26, 30]: 70
Plant response rating, Foxtail, Giant [26, 31]: 100
Plant response rating, Ragweed [27, 28]: 0
Plant response rating, Ragweed [27, 29]: 0

CC1CN(C(=O)c2cccc(-n3cncn3)c2)c2cccc(C3CC3)c2O1 (stereo not shown) [Compound 42]
Plant response rating, Ryegrass, Italian [1, 28]: 0
Plant response rating, Ryegrass, Italian [1, 29]: 50
Plant response rating, Blackgrass [2, 28]: 0
Plant response rating, Blackgrass [2, 29]: 40
Plant response rating, Kochia [3, 30]: 0
Plant response rating, Kochia [3, 31]: 20
Plant response rating, Rice [4]: 0
Plant response rating, Goosegrass [5, 28]: 20
Plant response rating, Goosegrass [5, 29]: 30
Plant response rating, Sedge, Umbrella [6]: 0
Plant response rating, Foxtail, Giant [7, 28]: 20
Plant response rating, Foxtail, Giant [7, 29]: 70
Plant response rating, Oat, Wild [8, 28]: 0
Plant response rating, Oat, Wild [8, 29]: 10
Plant response rating, Wheat [9, 28]: 0
Plant response rating, Wheat [9, 29]: 20
Plant response rating, Pigweed, Palmer [10, 28]: 30
Plant response rating, Pigweed, Palmer [10, 29]: 10
Plant response rating, Blackgrass [11, 30]: 30
Plant response rating, Blackgrass [11, 31]: 60
Plant response rating, Oat, Wild [12, 30]: 0
Plant response rating, Oat, Wild [12, 31]: 50
Plant response rating, Kochia [13, 28]: 0
Plant response rating, Kochia [13, 29]: 80
Plant response rating, Barnyardgrass [14]: 0
Plant response rating, Ducksalad [15]: 0
Plant response rating, Ragweed [16, 30]: 0
Plant response rating, Ragweed [16, 31]: 0
Plant response rating, Pigweed, Palmer [17, 30]: 10
Plant response rating, Pigweed, Palmer [17, 31]: 80
Plant response rating, Soybean [18, 30]: 0
Plant response rating, Soybean [18, 31]: 0
Plant response rating, Soybean [19, 28]: 70
Plant response rating, Soybean [19, 29]: 90
Plant response rating, Wheat [20, 30]: 0
Plant response rating, Wheat [20, 31]: 20
Plant response rating, Ryegrass, Italian [21, 30]: 50
Plant response rating, Ryegrass, Italian [21, 31]: 100
Plant response rating, Corn [22, 28]: 10
Plant response rating, Corn [22, 29]: 40
Plant response rating, Galium [23, 28]: 50
Plant response rating, Galium [23, 29]: 70
Plant response rating, Corn [24, 30]: 0
Plant response rating, Corn [24, 31]: 0
Plant response rating, Goosegrass [25, 30]: 30
Plant response rating, Goosegrass [25, 31]: 90
Plant response rating, Foxtail, Giant [26, 30]: 10
Plant response rating, Foxtail, Giant [26, 31]: 90
Plant response rating, Ragweed [27, 28]: 0
Plant response rating, Ragweed [27, 29]: 0
